US5362634A, “Process for producing A83543 compounds” (DowElanco, priority 1991, dated 1994)
Read-outs that look alike come from different tables or passages of the source.

Columns and labels:
adult stable fly (ASF) = assay: Guinea pig systemic test, adult stable fly; type: in vivo, Stomoxys calcitrans
Protocol: (§1) Adult guinea pigs are used in this test system. The compounds to be tested are dissolved in aqueous polyvinyl pyrrolidone or in polyethylene glycol 200, and an appropriate amount of the solution is administered either orally or by intraperitoneal injection.
(§2) Blood is drawn from the guinea pigs at 30 minutes except as noted, and the samples of blood are centrifuged. Dental wicks are saturated with the blood serum, and then exposed in Petri dishes to adult stable flies; blow fly larvae are exposed in test tubes. After 24 and 48 hours, the insects are examined, and the number of dead are counted. The results of the tests are recorded as the percent of the insects which are killed.

[1] = system: first instar yellow fever mosquito larvae; assay: In vitro mosquito larvicide test, first instar; settings: Aedes aegypti, 24 h, lowest concentration with 100% inhibition after 24 hr, microtiter plates, read-out: Minimal Inhibitory Concentration
Source text: The A83543 components were active against yellow fever mosquito (Aedes aegypti) larvae in standard in vitro mosquito larvicide tests.

[2] = system: SAW (Southern armyworm) larvae; assay: Foliar/bushbean test against SAW larvae; type: in vivo; settings: Spodoptera eridania, foliar; for inhibition at 0.5 ppm: 0.50 ppm
Protocol: (§3) Each test compound was formulated by dissolving the compound in an acetone/alcohol (1:1) mixture containing 23 g of "Toximul R" (sulfonate/nonionic emulsifier blend) and 13 g of "Toximul S" (sulfonate/nonionic emulsifier blend) per liter. These mixtures were then diluted with water to give the indicated concentrations.
[…] Other plants in the same treatment pot were left uninfested. The leaves were then sprayed with 5 mL of test solution using a DeVilbiss atomizing sprayer at 10 psi. Both surfaces of the leaves were covered until runoff and then allowed to dry for one hour. Two uninfested leaves were then excised and placed into a Petri dish containing Southern armyworm (Spodoptera eridania Cramer).
(§4) Additional insects were evaluated using similar formulations and evaluation procedures, with the exceptions noted.
(§5) After standard exposure periods, percent mortality was evaluated. The following abbreviations are used:
^a Days between treatment and observation
^b Mean of replicates tested

[3] = Anthelmintic activity in sheep; type: in vivo
adult stable fly = assay: In vitro efficacy against adult stable fly; settings: Stomoxys calcitrans
Source text: (§6) Tables XIX-XXI summarize in vitro studies with A83543A and A83543D.

adult BW (boll weevil) = assay: Topical test against adult BW; type: in vivo; settings: Anthonomus grandis, 72 h, 3 days
Protocol: as §3, §4, §5
^a One replicate; observed 3 days after treatment
^b Formulated A83543A (1 mL) poured over adult insects in a Petri

guinea pigs = assay: Toxicity to the host animal, guinea pig systemic test; type: in vivo; set-up: key: N: none
Protocol: as §1, §2

black blow fly larvae = assay: In vitro efficacy against black blow fly larvae; settings: Phormia regina
Source text: as §6

sheep = assay: Toxicity to the host animal, sheep systemic test; type: in vivo; set-up: key: N: none
Protocol: Tests are carried out in sheep using the test method described supra in the Guinea Pig Test description. Test compound is administered by intraperitoneal or intravenous injection or intraruminally; blood samples are drawn at 24 hours in these tests.

CC[C@H]1CCC[C@H](O[C@H]2CC[C@H](N(C)C)[C@@H](C)O2)[C@@H](C)C(=O)C2=C[C@@H]3[C@@H](C=C[C@@H]4C[C@@H](O[C@@H]5O[C@@H](C)[C@H](OC)[C@@H](OC)[C@H]5OC)C[C@@H]34)[C@@H]2CC(=O)O1 [A83543A]
50%: % Activity ASF (adult stable fly (ASF); 30 mg/kg IP, bled 30 min) | mortality at 30 mg/kg (adult stable fly (ASF); Stomoxys calcitrans, in Cavia porcellus, 30 mg/kg IP)
70%: mortality at 2 ppm (adult stable fly; 24 hour)
20%: inhibition at 5 ppm (adult BW (boll weevil); 5.00 ppm) | inhibition at 10 ppm (adult BW (boll weevil); 10.00 ppm)
0.016 µg/mL: MIC [1]
95%: mortality at 1 ppm (black blow fly larvae; 1 ppm)
10%: inhibition at 1 ppm ([2]; 72 h, neonate, 3 days) | mortality at 0.5 ppm (adult stable fly; 48 hour) | mortality at 1 ppm (adult stable fly; 24 hour)
N: Tox (guinea pigs; 10 mg/kg IP) | Tox (guinea pigs; 20 mg/kg IP) | Tox (guinea pigs; 30 mg/kg IP) | Tox (guinea pigs; 50 mg/kg IP) | Tox (guinea pigs; 50 mg/kg OR (oral)) | Tox (sheep; 1.0 mg/kg IV) | Tox (sheep; 10 mg/kg IP) | Tox (sheep; 10 mg/kg IR) | Tox (sheep; 30 mg/kg IP) | Tox (sheep; 30 mg/kg IR) | Tox (sheep; 50 mg/kg IP) | Tox (sheep; 50 mg/kg IR) | Tox (sheep; 2 × 25 mg/kg IR)
66.7%: inhibition at 1 ppm ([2]; 96 h, neonate, 4 days)
0.031 µg/mL: MIC ([1]; second of two lots)
90%: mortality at 2 ppm (adult stable fly; 48 hour) | mortality at 10 ppm (adult stable fly; 48 hour)
30%: % Activity ASF (adult stable fly (ASF); 50 mg/kg IP, bled 24 hr)
0%: % Activity ASF (adult stable fly (ASF); 10 mg/kg IP, bled 30 min) | % Activity ASF (adult stable fly (ASF); 10 mg/kg IP, bled 5 hr) | % Activity ASF (adult stable fly (ASF); 10 mg/kg IP, bled 24 hr) | % Activity ASF (adult stable fly (ASF); 20 mg/kg IP, bled 30 min) | % Activity ASF (adult stable fly (ASF); 20 mg/kg IP, bled 5 hr) | % Activity ASF (adult stable fly (ASF); 20 mg/kg IP, bled 24 hr) | % Activity ASF (adult stable fly (ASF); 30 mg/kg IP, bled 5 hr) | % Activity ASF (adult stable fly (ASF); 30 mg/kg IP, bled 24 hr) | % Activity ASF (adult stable fly (ASF); 50 mg/kg oral, bled 24 hr) | mortality at 10 mg/kg (adult stable fly (ASF); Stomoxys calcitrans, in Cavia porcellus, 10 mg/kg IP) | mortality at 20 mg/kg (adult stable fly (ASF); Stomoxys calcitrans, in Cavia porcellus, 20 mg/kg IP) | inhibition at 10 ppm ([2]; 96 h, fifth instar, 4 days) | inhibition at 50 ppm ([2]; 96 h, fifth instar, 4 days) | inhibition at 0.5 ppm ([2]; 96 h, neonate, 4 days) | inhibition at 1 ppm ([2]; 96 h, second instar, 4 days) | inhibition at 5 ppm ([2]; 96 h, second instar, 4 days) | inhibition at 0.5 ppm ([2]; 96 h, third instar, 4 days) | inhibition at 1 ppm ([2]; 96 h, third instar, 4 days) | mortality at 0.5 ppm (adult stable fly; 24 hour) | inhibition at 1 ppm (adult BW (boll weevil); 1.00 ppm)
100%: % Activity ASF (adult stable fly (ASF); 50 mg/kg IP, bled 30 min) | mortality at 50 mg/kg (adult stable fly (ASF); Stomoxys calcitrans, in Cavia porcellus, 50 mg/kg IP) | inhibition at 10 ppm ([2]; 72 h, neonate, 3 days) | inhibition at 50 ppm ([2]; 72 h, neonate, 3 days) | inhibition at 100 ppm ([2]; 72 h, neonate, 3 days) | inhibition at 5 ppm ([2]; 96 h, neonate, 4 days) | inhibition at 10 ppm ([2]; 96 h, neonate, 4 days) | inhibition at 50 ppm ([2]; 96 h, neonate, 4 days) | inhibition at 100 ppm ([2]; 96 h, second instar, 4 days) | inhibition at 10 ppm ([2]; 96 h, third instar, 4 days) | inhibition at 50 ppm ([2]; 96 h, third instar, 4 days) | mortality at 5 ppm (adult stable fly; 48 hour) | mortality at 10 ppm (adult stable fly; 24 hour) | mortality at 25 ppm (adult stable fly; 24 hour) | mortality at 25 ppm (adult stable fly; 48 hour) | mortality at 50 ppm (adult stable fly; 24 hour) | mortality at 50 ppm (adult stable fly; 48 hour) | mortality at 100 ppm (adult stable fly; 24 hour) | mortality at 100 ppm (adult stable fly; 48 hour) | inhibition at 50 ppm (adult BW (boll weevil); 50.00 ppm) | inhibition at 100 ppm (adult BW (boll weevil); 100.0 ppm) | mortality at 2 ppm (black blow fly larvae; 2 ppm) | mortality at 5 ppm (black blow fly larvae; 5 ppm) | mortality at 10 ppm (black blow fly larvae; 10 ppm) | mortality at 25 ppm (black blow fly larvae; 25 ppm) | mortality at 50 ppm (black blow fly larvae; 50 ppm) | mortality at 100 ppm (black blow fly larvae; 100 ppm)
25%: mortality at 0.25 ppm (black blow fly larvae; 0.25 ppm)
40%: % Activity ASF (adult stable fly (ASF); 50 mg/kg IP, bled 5 hr) | inhibition at 5 ppm ([2]; 72 h, neonate, 3 days) | inhibition at 5 ppm ([2]; 96 h, third instar, 4 days)
did not show anthelmintic activity: anthelmintic activity ([3]; single intraperitoneal dose of 50 mg/kg) | anthelmintic activity ([3]; single intraruminal dose of 50 mg/kg)
60%: % Activity ASF (adult stable fly (ASF); 50 mg/kg oral, bled 5 hr) | mortality at 50 mg/kg (adult stable fly (ASF); Stomoxys calcitrans, in Cavia porcellus, 50 mg/kg OR (oral), 5-hr blood sample) | mortality at 1 ppm (adult stable fly; 48 hour) | mortality at 0.5 ppm (black blow fly larvae; 0.5 ppm)
80%: inhibition at 10 ppm ([2]; 96 h, second instar, 4 days) | inhibition at 50 ppm ([2]; 96 h, second instar, 4 days) | mortality at 5 ppm (adult stable fly; 24 hour)
